Experimental data as given in paper PMC6571685, “Rippled β-Sheet Formation by an Amyloid-β Fragment Indicates Expanded Scope of Sequence Space for Enantiomeric β-Sheet Peptide Coassembly” (Molecules, 2019).
Square brackets hold non-standard residues; d marks the D form. Peptide text beside a SMILES is read from it.

How the values were obtained:
Type in all cases: physicochemical
[1] = Transmission electron microscopy of assemblies, fibril widths; settings: assembled 21 days in PBS pH 7.4, 5% DMSO, 37 °C, washed with water, uranyl acetate stain; ImageJ, averages from 100–150 measurements
Procedure: Dried, disaggregated peptide aliquots were prepared for assembly as in sedimentation assays, but in larger volumes (greater than or equal to 5 mL) and were allowed to assemble for 21 days so as to allow for complete assembly of all samples. Following assembly, samples were centrifuged at 4300 × g for 90 min at 17 °C to collect aggregates. The supernatant was then carefully removed and deionized water added, mixed, and centrifugation repeated to wash. After first wash, supernatant was again removed and deionized water added and mixed, at which point samples were spotted for TEM or SEM if desired (below). Centrifugation was repeated once more and supernatant removed, and then samples were frozen and lyophilized. Lyophilized pellets were then placed on the solid-state stage of a Shimadzu FTIR-8400S (Shimadzu Corporation, Nakagyo-ku, Kyoto, Japan) spectrometer and analyzed at a resolution of 4 cm^−1.
Fibrils for the TEM images reported were obtained from the same samples that were used for FTIR, above, at the same timepoint. […] TEM images were recorded on a Hitachi 7650 transmission electron microscope in high contrast mode with an accelerating voltage of 80 kV. Fibril widths were measured in ImageJ and are reported as averages from 100–150 measurements.

[2] = HPLC sedimentation assay (modified Wetzel protocol) of peptide self-assembly / coassembly
Procedure: (§1) The self-assembly of L- and D-Ac-KLVFFAE-NH2 peptides was compared to the assembly properties of an equimolar mixture of the enantiomers. The peptides were prepared via standard Fmoc solid phase peptide synthesis, purified by reverse-phase HPLC, and characterized by MALDI-TOF mass spectrometry (see Materials and Methods section for experimental details and Supplementary Materials for characterization and purity data). Prior to self-assembly, peptides were disaggregated by sequential treatment with trifluoroacetic acid and hexafluoroisopropanol using a modified Wetzel protocol; peptide concentrations were determined by comparison to standard analytical HPLC curves (see Supplementary Materials for details), as described previously for studies with Aβ(16–22). Disaggregated, lyophilized peptides were then dissolved in DMSO and diluted into phosphate-buffered saline (pH 7.4) to reach total peptide concentrations of 110 μM (55 μM of each L- and D-enantiomer for mixed coassembly studies) (final DMSO concentration was 5% v/v). Upon dilution, peptides were incubated at 37 °C for assembly.
Comparison of self-assembly and coassembly of Aβ(16–22) was conducted by a time-dependent sedimentation analysis. For these studies, we adapted Wetzel’s HPLC sedimentation protocol that we have previously used to assess Aβ(16–22) self-assembly. Aliquots of self-assembly and coassembly mixtures were removed over time and subjected to ultracentrifugation to remove fibrils and […] order aggregates after which the concentration of unaggregated peptide was quantified. In these analyses, equilibrium between monomer and fibril is eventually reached, with the final monomer concentration, or critical concentration (Cr), providing a quantitative characterization of the dynamic equilibrium between fibrils of length n and monomer with fibrils of length n + 1. […]
Sedimentation assays were performed using a modified Wetzel protocol. […] These solutions were then analyzed by analytical HPLC for correlation to a concentration curve to determine remaining monomer concentration.

[3] = Visual observation of precipitate after dilution into PBS; settings: 110 μM total peptide, DMSO stock diluted into PBS pH 7.4, 5% v/v DMSO
Procedure: as §1

Row | Molecule | width of assemblies (TEM) [1] [nm] | critical concentration (Cr), final monomer concentration at equilibrium ([2]; 110 μM total peptide (55 μM each enantiomer in mixture), PBS pH 7.4, 5% v/v DMSO, 0.1% NaN3, 37 °C, up to 21 days, aliquots centrifuged 436,000 × g 1 h 4 °C, supernatant monomer by analytical HPLC) [µM] | time to reach equilibrium (constant monomer concentration) ([2]; 110 μM total peptide, PBS pH 7.4, 5% DMSO, 37 °C, monomer by HPLC after ultracentrifugation) | ΔG for addition of monomer to fibril at equilibrium ([2]; from Cr = 1/Ka, PBS pH 7.4, 5% DMSO, 37 °C, 110 μM total peptide) [kcal/mol] | visible precipitate immediately after gentle mixing [3]
1 | CC(=O)N[C@H](CCCCN)C(=O)N[C@H](CC(C)C)C(=O)N[C@@H](C(=O)N[C@H](Cc1ccccc1)C(=O)N[C@H](Cc1ccccc1)C(=O)N[C@H](C)C(=O)N[C@H](CCC(=O)O)C(N)=O)C(C)C [D-Aβ(16–22), D-Ac-KLVFFAE-NH2] (Ac-[dK][dL][dV][dF][dF][dA][dE]-NH2) | 11.8 ± 0.5 | – | – | – | –
2 | CC(=O)N[C@@H](CCCCN)C(=O)N[C@@H](CC(C)C)C(=O)N[C@H](C(=O)N[C@@H](Cc1ccccc1)C(=O)N[C@@H](Cc1ccccc1)C(=O)N[C@@H](C)C(=O)N[C@@H](CCC(=O)O)C(N)=O)C(C)C [L-Aβ(16–22), Ac-KLVFFAE-NH2] (Ac-KLVFFAE-NH2) | 11.8 ± 0.5 | – | – | – | –
3 | Ac-KLVFFAE-NH2 [single enantiomer Aβ(16–22), self-assembled single enantiomer Aβ(16–22) sample (L- or D-enantiomer alone), pleated β-sheet] | – | 24 ± 6 | required over two weeks to reach a constant monomer concentration | -6.6 ± 0.2 | not in the single enantiomer self-assembly controls
